Here are results for three compounds from patent US6136814A (priority 1997, dated 2000).

Series [1] is described as follows: pH stability of aqueous acyclovir sodium under accelerated CO2 permeation conditions (Example 2). Type of series: physicochemical. Particulars: after 3 weeks. An excerpt: The solution was transferred, under a nitrogen atmosphere, to autoclaved filling equipment contained within a laminar air-flow hood to avoid particle and microbiological contamination. […] The filtered bulk solution and containers were purged with nitrogen during the filling process to avoid CO2 absorption. The process was repeated for polyethylene terephthalate vials and Daikyo Resin CZ vials (sold by Daikyo Gomu Seiko, Ltd, reported in some references as polymethylpentene).
The samples were tested under accelerated CO2 storage conditions. The samples were placed in three different chambers with elevated CO2 atmospheres, maintained at a concentration of approximately 2%, 5%, and 10% CO2 by volume, for 3 weeks. The pH was measured at various times using a calibrated standard pH meter.

A short description of series [2]: compatibility with container and seal materials, pH on storage (Example 3). Type of series: physicochemical. Particulars: polypropylene vials, RT and 40° C., three months. How it is done: At various time intervals, the samples were tested for pH. The pH was measured using a calibrated standard pH meter.
Series [3] in a line: effect of CO2 on pH of aqueous acyclovir solution under accelerated conditions (Example 6). Type of series: physicochemical. As to the method:
The desiccators were evacuated and filled with the CO2 standards three consecutive times at the beginning of the experiment, and the filling process was repeated each week and each time the desiccators were opened for removing samples. The pressure in the desiccators was maintained at 1 atm. The pH was measured at various time intervals.

Series [4] in a line: calculated pH over time, 10 mL vial, normal atmospheric storage (Example 7). As to the method: (§1) The atmospheric CO2 content, measured using a Dickson, Model CO2 X carbon dioxide recorder, was measured as 0.07% by volume and this value was used in the calculation.
A short description of series [5]: calculated pH over time, 20 mL vial, normal atmospheric storage (Example 8). How it is done:
as §1

The nature of series [6]: measured pH drop over 21 months under normal atmospheric conditions (Example 9). Type of series: physicochemical. As to the method: For each vial, one half was stored in the upright position and the other half was stored in the inverted position. The pH was measured over time using a standard calibrated pH meter.
Series [7] is described as follows: aqueous solubility. Type of series: physicochemical. The conditions noted are these: water, determined experimentally.
The nature of series [8]: pH at which precipitation or haziness is observed. Type of series: physicochemical. An excerpt: As indicated earlier, the pH of aqueous acyclovir sodium must be maintained above the pHp to avoid the formation of precipitates.
For series [9] the following is noted: cited from earlier work.
For series [10] the following is noted: depending on the desired concentration; cited from earlier work.
Series [11] is described as follows: effect of CO2 on pH of unbuffered aqueous sodium hydroxide in polypropylene vials (Example 1). Type of series: physicochemical. An excerpt: This example represents the effect of CO2 on the pH of an unbuffered aqueous sodium hydroxide solution. […] The solution was placed in a series of identical polypropylene vials which were sealed and separated into two groups (Groups A and B). The vials were identical in every relevant parameter, including average wall thickness, surface area, and stoppers. The sodium hydroxide solution in all samples were taken from the same lot and each vial was filled under identical filling conditions. Samples in group A were stored under normal atmospheric conditions. Samples in group B were placed in a 5.8 L desiccator along with a beaker containing 50 mL of 1N aq. HCl (0.05 moles HCl). After carefully adding 100 mL of 0.5M NaHCO3 (0.05 moles NaHCO3) to the HCl solution, the desiccator was immediately sealed to prevent escape of the resulting CO2 (approximately 0.05 moles CO2). The calculated concentration of CO2 in the chamber was approximately 18% by volume. The samples were allowed to stand for 3 weeks under the aforesaid conditions. The pH of the samples in the containers was measured using a calibrated standard pH meter.

By solubility is commonly meant the dissolved amount per volume that the medium holds. Low values mean little dissolved substance, high ones much dissolved substance.

Molecules are shown by their SMILES. Several values for one entry are separate records, joined by “and”; a condition that tells them apart may be missing. Identical values can stand only once.

As for `Nc1nc2c(ncn2COCCO)c(=O)[nH]1` [acyclovir sodium], the precipitate entry in series [1] (2%, 5% and 10% CO2) was “no precipitate was observed”. The pH decline in series [1] (5% CO2) stood at 0.33 pH units; in series [1] (10% CO2), 0.48 pH units. Moreover, the “precipitation upon visual inspection” value in [2] was “no precipitation was observed”. In addition, the “impurities by HPLC” value in series [2] (Teflon coated stoppers) was “no significant impurities were generated”. The “initial pH in the absence of CO2” value in series [3] (54.9 mg/mL, with purging headspace) came to 11.3. The “Measured pH” value in series [3] (2.00% CO2, 10 mL vials, 14 days) was found to be 11.10; in [3] (2.00% CO2, 10 mL vials, 16 days), 11.08; in [3] (2.00% CO2, 10 mL vials, 20 days), 11.03; in [3] (2.00% CO2, 10 mL vials, 23 days), 11.03; in series [3] (2.00% CO2, 10 mL vials, 27 days), 11.01; in series [3] (2.00% CO2, 20 mL vials, 14 days) it was 11.12. In addition, the “Measured pH” value in series [3] (2.00% CO2, 20 mL vials, 16 days) amounted to 11.10; in [3] (2.00% CO2, 20 mL vials, 20 days) it was 11.07; in [3] (2.00% CO2, 20 mL vials, 23 days), 11.05; in series [3] (2.00% CO2, 20 mL vials, 27 days) it was 11.02; in series [3] (10.1% CO2, 10 mL vials, 6 days), 10.94; in series [3] (10.1% CO2, 10 mL vials, 9 days), 10.87. Besides, the “Measured pH” value amounted to 10.70 in series [3] (10.1% CO2, 10 mL vials, 14 days); 10.97 in [3] (10.1% CO2, 20 mL vials, 6 days); 10.90 in [3] (10.1% CO2, 20 mL vials, 9 days); 10.74 in series [3] (10.1% CO2, 20 mL vials, 14 days). Further, the shelf life result is on record as “greater than 24 months” in series [4]; “greater than 24 months” in [5]; “at least 21 months” in [6] (real time, normal atmospheric conditions). For the same compound, the precipitates result in series [6] (after 21 months) is “no precipitates were detected”. The “acceptable for parenteral administration” value in series [6] (normal atmospheric conditions, upright or inverted) was “at least 21 months”. The compound further displayed a solubility in [7] of 644 mg/mL. Also, the “pH at which precipitation becomes apparent” value in [8] (54.9 mg/mL aqueous solution, actual observations) was under 10.8. For the same compound, in [8] (about 55 mg/mL acyclovir sodium), the “pH below which haziness is observed” value was under 10.8.
Take `Nc1nc2c(ncn2COCCO)c(=O)[nH]1` [acyclovir, 2-amino-1,9-dihydro-9-[(2-hydroxy-ethoxy)methyl]-6H-purin-6-one]: the “water solubility, neutral form” value in series [9] (undissociated acyclovir, in words) is “virtually insoluble in water”. For the same compound, the “aqueous solubility, neutral form” value in [9] (water, ambient temperature, Pharm. Res., vol. 8, p. 1087 (1991)) is 6.2 mM and ~6.2 mM. The “pH required to maintain an aqueous solution” value in series [10] is given as 10-11.
With `[Na+].[OH-]` [sodium hydroxide], the pH is 11.22 in series [11] (Group A normal atmosphere, 1 week); 11.21 in series [11] (Group A normal atmosphere, 3 weeks); 11.31 in series [11] (Group A normal atmosphere, initial); 6.37 in series [11] (Group B CO2 chamber (approx. 18% CO2 by vol.), 3 weeks); 11.31 in series [11] (Group B CO2 chamber (approx. 18% CO2 by vol.), initial).
